What was measured:
[1] = system: human cell line U937; test: Mixed culture experiment (bacterially contaminated cell culture), eukaryotic cells; format: cell-based; details: 25 and 50 μM peptide, two hours, with S. xylosus
Description: (§1) Destruction of the bacteria membranes by the antimicrobial peptides was investigated in a flow cytometric method with the help of a living/dead staining method in combination with an internal calibration and counting system. For this purpose, SYBR Green I (Sigma-Aldrich) was used as total staining and propidium iodide (Sigma-Aldrich) was used as contrast staining for membrane-damaged bacteria. […] The flow analysis was carried out on a Cytomics FC500 Instrument (Beckmann Coulter, Munich, Germany) equipped with an argon laser (488 nm) and the corresponding emission filters for SYBR Green I (525 nm) and propidium iodide (620 nm). […] Then, the mixture was incubated for 10 min in the dark at room temperature and then measured by flow cytometry. The number of events in each gate was captured and evaluated using the CXP Analyses 2.2 Software. The total number of living and dead bacteria was calculated. […]
(§2) The ability of the antimicrobial peptides to be used as a therapeutic active ingredient was investigated by reference to its selective antimicrobial properties in model mixed culture experiments. […] Then, the mixed cell cultures were stained and measured by flow cytometry as described in example 3, the measurement scale being adapted to the measurement of the larger eukaryotic cells.

[2] = system: Staphylococcus xylosus; test: Mixed culture experiment (bacterially contaminated cell culture), bacteria; format: cell-based; details: 25 and 50 μM peptide, two hours, with U937
Description: as §1, §2

CC[C@H](C)[C@H](NC(=O)CN)C(=O)NCC(=O)N[C@@H](C)C(=O)N[C@H](C(=O)N[C@@H](CC(C)C)C(=O)N[C@@H](CCCCN)C(=O)N[C@H](C(=O)N[C@@H](CC(C)C)C(=O)N[C@H](C(=O)N[C@H](C(=O)NCC(=O)N[C@@H](CC(C)C)C(=O)N1CCC[C@H]1C(=O)N[C@@H](C)C(=O)N[C@@H](CC(C)C)C(=O)N[C@H](C(=O)N[C@@H](CO)C(=O)N[C@@H](Cc1c[nH]c2ccccc12)C(=O)N[C@H](C(=O)N[C@@H](CCCCN)C(=O)N[C@@H](CCCNC(=N)N)C(=O)N[C@@H](CCCCN)C(=O)N[C@@H](CCCNC(=N)N)C(=O)N[C@@H](CCC(N)=O)C(=O)N[C@@H](CCC(N)=O)C(N)=O)[C@@H](C)CC)[C@@H](C)CC)[C@@H](C)O)[C@@H](C)O)C(C)C)C(C)C [Melittin]
Effect on eukaryotic U937 cells in mixed culture [1]: destroys all of the eukaryotic U937 cells
Killing of S. xylosus cells in mixed culture [2]: comprehensive killing of bacteria cells

Source: patent publication US10556926B2, “Synthetic artificial peptides with antimicrobial effect” (priority 2014, dated 2020)
